Test system: NCI-H460
Assay: Cytotoxicity against human H460 cells
Assay type: functional, cell-based

C=C1[C@H]2C[C@@]3(OC(=O)c4ccccc4)C(=O)[C@@H]4[C@]5(OC(C)=O)CO[C@@H]5C[C@H](O)[C@@]4(C)[C@H](O)[C@@](O)(O2)[C@@H]1C3(C)C
IC50: 51.5 µM

CC(=O)O[C@@]12CO[C@@H]1C[C@@H](O)[C@@]1(C)C(=O)C(=O)C3=C(C)[C@@H](O)C[C@@](O)([C@@H](OC(=O)c4ccccc4)[C@H]21)C3(C)C
IC50: 60 µM

CC(=O)O[C@@]12CO[C@@H]1C[C@H](O)[C@@]1(C)C(=O)[C@H](O)C3=C(C)[C@@H](O)C[C@@](O)([C@@H](OC(=O)c4ccccc4)[C@H]21)C3(C)C
IC50: 3.1 µM

C=C1[C@H]2C[C@@]3(OC(=O)c4ccccc4)C(=O)[C@@H]4[C@](O)(COC(C)=O)[C@@H](O)C[C@H](O)[C@@]4(C)[C@H](O)[C@@](O)(O2)[C@@H]1C3(C)C
IC50: 95.2 µM

Source: ChEMBL document CHEMBL1154376, “Anomalous microbial transformations on the taxane ring of 10-DAB by a strain of the fungus Curvularia lunata: transbenzoylation, transacetylation, and opening of the oxetane ring” (J Nat Prod, 2009)
